From patent US11987588B2, “Modulators of the beta-3 adrenergic receptor useful for the treatment or prevention of heart failure and disorders related thereto” (Arena Pharmaceuticals, Inc., priority 2017, dated 2024) come the findings set out here.

The structures appear in SMILES notation.

Sequence of Beta-3 Adrenergic Receptor (P13945 whole entry, species assumed): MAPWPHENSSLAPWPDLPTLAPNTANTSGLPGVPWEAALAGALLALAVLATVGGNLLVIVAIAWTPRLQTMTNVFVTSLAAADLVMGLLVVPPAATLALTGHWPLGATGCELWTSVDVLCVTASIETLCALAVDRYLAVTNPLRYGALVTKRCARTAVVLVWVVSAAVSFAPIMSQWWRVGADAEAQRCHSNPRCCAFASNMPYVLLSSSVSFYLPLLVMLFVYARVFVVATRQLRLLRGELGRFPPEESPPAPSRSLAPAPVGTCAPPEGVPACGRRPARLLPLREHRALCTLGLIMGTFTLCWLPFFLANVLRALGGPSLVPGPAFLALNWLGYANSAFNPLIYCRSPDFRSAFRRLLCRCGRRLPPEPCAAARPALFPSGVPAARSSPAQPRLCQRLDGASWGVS

The assay concerns the target Beta-3 Adrenergic Receptor (Homo sapiens (Human), UniProt P13945). The assay is described as follows: Homogeneous Time-Resolved Fluorescence (HTRF) cAMP antagonist assay, IC50 determination. It counts as cell-based. The conditions noted are these: CHO-K1 cells stably expressing recombinant receptor, isoproterenol at EC90. The method in brief:
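CHO-K1 cells stably expressing the recombinant receptor were preincubated with compound (10-point, 5-fold dilutions; top final typically 10 or 100 μM) in PBS with 1 mM IBMX, then stimulated with isoproterenol at its EC90 for 1 h at room temperature. cAMP was read by HTRF against an on-plate standard curve.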
In general terms: TR-FRET usually uses a lanthanide donor and a delayed reading to cut background.
Usually IC50 stands for the concentration that inhibits the measured activity by half. In the case of `CNS(=O)(=O)c1cccc(OC[C@@H](O)CNC2COC3(CCN(S(=O)(=O)c4cccc(-c5cccc(CN(C)C)c5)c4)CC3)C2)c1` (stereo partly drawn) [Compound 105, 3-((2S)-3-(8-(3′-((dimethylamino)methyl)biphenyl-3-ylsulfonyl)-1-oxa-8-azaspiro[4.5]decan-3-ylamino)-2-hydroxypropoxy)-N-methylbenzenesulfonamide], the IC50 worked out at 31.2 nM.

Turning to `CNS(=O)(=O)c1cccc(OC[C@@H](O)CNC2COC3(CCN(S(=O)(=O)c4cccc(Cl)c4F)CC3)C2)c1` (stereo partly drawn) [Compound 139, 3-((2S)-3-(8-(3-chloro-2-fluorophenylsulfonyl)-1-oxa-8-azaspiro[4.5]decan-3-ylamino)-2-hydroxypropoxy)-N-methylbenzenesulfonamide], the IC50 was 10.2 nM.

In the case of `CNS(=O)(=O)c1cccc(OC[C@@H](O)CNC2COC3(CCN(S(=O)(=O)c4cccc(-c5cccc(N(C)C)c5)c4)CC3)C2)c1` (stereo partly drawn) [Compound 83, 3-((2S)-3-(8-(3′-(dimethylamino)biphenyl-3-ylsulfonyl)-1-oxa-8-azaspiro[4.5]decan-3-ylamino)-2-hydroxypropoxy)-N-methylbenzenesulfonamide], the IC50 amounted to 99.9 nM.

As to `CCN1CCOc2ncc(S(=O)(=O)N3CCC4(CC3)CC(NC[C@H](O)COc3cccc(S(=O)(=O)NC)c3)CO4)cc21` (stereo partly drawn) [Compound 423, 3-((2S)-3-(8-(1-ethyl-2,3-dihydro-1H-pyrido[2,3-b][1,4]oxazin-7-ylsulfonyl)-1-oxa-8-azaspiro[4.5]decan-3-ylamino)-2-hydroxypropoxy)-N-methylbenzenesulfonamide], the IC50 was determined as 12.6 nM.

For `NCCNS(=O)(=O)c1cccc(OC[C@@H](O)CNC2COC3(CCN(S(=O)(=O)c4ccc5ccccc5c4)CC3)C2)c1` (stereo partly drawn) [Compound 91, N-(2-aminoethyl)-3-((2S)-2-hydroxy-3-(8-(naphthalen-2-ylsulfonyl)-1-oxa-8-azaspiro[4.5]decan-3-ylamino)propoxy)benzenesulfonamide], the IC50 was 1120 nM.

Consider `CNS(=O)(=O)c1cccc(OC[C@@H](O)CNC2COC3(CCN(S(=O)(=O)c4ccc5cc(Cl)ccc5c4)CC3)C2)c1` (stereo partly drawn) [Compound 264, 3-((2S)-3-(8-(6-chloronaphthalen-2-ylsulfonyl)-1-oxa-8-azaspiro[4.5]decan-3-ylamino)-2-hydroxypropoxy)-N-methylbenzenesulfonamide], for which the concentration for half-maximal inhibition (IC50) turned out to be 39 nM.

Regarding `CNS(=O)(=O)c1cccc(OC[C@@H](O)CNC2COC3(CCN(S(=O)(=O)c4ccc(Br)c(C)c4)CC3)C2)c1` (stereo partly drawn) [Compound 159, 3-((2S)-3-(8-(4-bromo-3-methylphenylsulfonyl)-1-oxa-8-azaspiro[4.5]decan-3-ylamino)-2-hydroxypropoxy)-N-methylbenzenesulfonamide], the IC50 came out at 4.78 nM.

Take `CNS(=O)(=O)c1cccc(OC[C@@H](O)CNC2COC3(CCN(S(=O)(=O)c4cccc(OC)c4)CC3)C2)c1` (stereo partly drawn) [Compound 27, 3-((2S)-2-hydroxy-3-(8-(3-methoxyphenylsulfonyl)-1-oxa-8-azaspiro[4.5]decan-3-ylamino)propoxy)-N-methylbenzenesulfonamide]: the IC50 was found to be 13.8 nM.

Turning to `CNS(=O)(=O)c1cccc(OC[C@@H](O)CNC2COC3(CCN(S(=O)(=O)c4cncc(Br)c4)CC3)C2)c1` (stereo partly drawn) [Compound 337, 3-((2S)-3-(8-(5-bromopyridin-3-ylsulfonyl)-1-oxa-8-azaspiro[4.5]decan-3-ylamino)-2-hydroxypropoxy)-N-methylbenzenesulfonamide], the IC50 came to 18.6 nM.

With `CNS(=O)(=O)c1cccc(OC[C@@H](O)CN[C@H]2COC3(CCN(S(=O)(=O)c4cnc5[nH]cc(C)c5c4)CC3)C2)c1` [Compound 512, 3-((S)-2-hydroxy-3-((R)-8-(3-methyl-1H-pyrrolo[2,3-b]pyridin-5-ylsulfonyl)-1-oxa-8-azaspiro[4.5]decan-3-ylamino)propoxy)-N-methylbenzenesulfonamide], the IC50 was determined as 6.62 nM.

Turning to `CNS(=O)(=O)c1cccc(OC[C@@H](O)CNC2COC3(CCN(S(=O)(=O)c4cccc(-c5cn(C)nc5C(F)(F)F)c4)CC3)C2)c1` (stereo partly drawn) [Compound 62, 3-((2S)-2-hydroxy-3-(8-(3-(1-methyl-3-(trifluoromethyl)-1H-pyrazol-4-yl)phenylsulfonyl)-1-oxa-8-azaspiro[4.5]decan-3-ylamino)propoxy)-N-methylbenzenesulfonamide], the IC50 was found to be 44.9 nM.

Consider `CNS(=O)(=O)c1cccc(OC[C@@H](O)CNC2COC3(CCN(c4cc(Cl)ccn4)CC3)C2)c1` (stereo partly drawn) [Compound 433, 3-((2S)-3-(8-(4-chloropyridin-2-yl)-1-oxa-8-azaspiro[4.5]decan-3-ylamino)-2-hydroxypropoxy)-N-methylbenzenesulfonamide], for which the IC50 amounted to 352 nM.

Consider `CNS(=O)(=O)c1cccc(OC[C@@H](O)CNC2COC3(CCN(S(=O)(=O)c4ccc(C)cc4OC)CC3)C2)c1` (stereo partly drawn) [Compound 135, 3-((2S)-2-hydroxy-3-(8-(2-methoxy-4-methylphenylsulfonyl)-1-oxa-8-azaspiro[4.5]decan-3-ylamino)propoxy)-N-methylbenzenesulfonamide], for which the IC50 is 33.3 nM.

Turning to `CNS(=O)(=O)c1cccc(OC[C@@H](O)CNC2COC3(CCN(S(=O)(=O)c4cccc(-c5cncc(C)c5)c4)CC3)C2)c1` (stereo partly drawn) [Compound 110, 3-((2S)-2-hydroxy-3-(8-(3-(5-methylpyridin-3-yl)phenylsulfonyl)-1-oxa-8-azaspiro[4.5]decan-3-ylamino)propoxy)-N-methylbenzenesulfonamide], the IC50 is 19 nM.

As for `CNS(=O)(=O)c1cccc(OC[C@@H](O)CNC2COC3(CCN(S(=O)(=O)c4ccc(OC)cc4C)CC3)C2)c1` (stereo partly drawn) [Compound 236, 3-((2S)-2-hydroxy-3-(8-(4-methoxy-2-methylphenylsulfonyl)-1-oxa-8-azaspiro[4.5]decan-3-ylamino)propoxy)-N-methylbenzenesulfonamide], the IC50 stood at 54.9 nM.

Take `CN1CCOc2ncc(S(=O)(=O)N3CCC4(CC3)C[C@@H](NC[C@H](O)COc3cccc(S(=O)(=O)NC5CCCC5O)c3)CO4)cc21` (stereo in doubt) [Compound 437, 3-((S)-2-hydroxy-3-((R)-8-(1-methyl-2,3-dihydro-1H-pyrido[2,3-b][1,4]oxazin-7-ylsulfonyl)-1-oxa-8-azaspiro[4.5]decan-3-ylamino)propoxy)-N-((1R,2S)-2-hydroxycyclopentyl)benzenesulfonamide]: the IC50 came to 472 nM.

As to `CNS(=O)(=O)c1cccc(OC[C@@H](O)CN[C@@H]2COC3(CCN(S(=O)(=O)c4cccc(-c5cccnc5)c4)CC3)C2)c1` [Compound 284, 3-((S)-2-hydroxy-3-((S)-8-(3-(pyridin-3-yl)phenylsulfonyl)-1-oxa-8-azaspiro[4.5]decan-3-ylamino)propoxy)-N-methylbenzenesulfonamide], the IC50 came out at 11.6 nM.

`CNS(=O)(=O)c1cccc(OC[C@@H](O)CN[C@H]2COC3(CCN(S(=O)(=O)c4cnc5c(c4)[nH]c(=O)n5C)CC3)C2)c1` [Compound 518, 3-((S)-2-hydroxy-3-((R)-8-(3-methyl-2-oxo-2,3-dihydro-1H-imidazo[4,5-b]pyridin-6-ylsulfonyl)-1-oxa-8-azaspiro[4.5]decan-3-ylamino)propoxy)-N-methylbenzenesulfonamide]: the concentration for half-maximal inhibition (IC50) was 133 nM.

Turning to `NS(=O)(=O)c1cccc(OC[C@@H](O)CN[C@H]2COC3(CCN(S(=O)(=O)c4ccc5c(c4)CCCO5)CC3)C2)c1` [Compound 565, 3-((S)-3-((R)-8-(chroman-6-ylsulfonyl)-1-oxa-8-azaspiro[4.5]decan-3-ylamino)-2-hydroxypropoxy)benzenesulfonamide], the IC50 is 51.2 nM.

On to `CNS(=O)(=O)c1cccc(OC[C@@H](O)CNC2COC3(CCN(S(=O)(=O)c4ccc(C)c(C)c4)CC3)C2)c1` (stereo partly drawn) [Compound 19, 3-((2S)-3-(8-(3,4-dimethylphenylsulfonyl)-1-oxa-8-azaspiro[4.5]decan-3-ylamino)-2-hydroxypropoxy)-N-methylbenzenesulfonamide], for which the IC50 was determined as 10 nM.

For the molecule `CNS(=O)(=O)c1cccc(OC[C@@H](O)CNC2COC3(CCN(S(=O)(=O)c4cc(S(C)(=O)=O)ccc4Cl)CC3)C2)c1` (stereo partly drawn) [Compound 203, 3-((2S)-3-(8-(2-chloro-5-(methylsulfonyl)phenylsulfonyl)-1-oxa-8-azaspiro[4.5]decan-3-ylamino)-2-hydroxypropoxy)-N-methylbenzenesulfonamide], the IC50 is 14.9 nM.

Consider `Cc1c(S(=O)(=O)N2CCC3(CC2)CC(NC[C@H](O)COc2cccc(S(=O)(=O)N(C)C)c2)CO3)cnn1-c1ccccc1` (stereo partly drawn) [Compound 252, 3-((2S)-2-hydroxy-3-(8-(5-methyl-1-phenyl-1H-pyrazol-4-ylsulfonyl)-1-oxa-8-azaspiro[4.5]decan-3-ylamino)propoxy)-N,N-dimethylbenzenesulfonamide], for which the IC50 is 29.3 nM.

Regarding `CNS(=O)(=O)c1cccc(OC[C@@H](O)CN[C@H]2COC3(CCN(S(=O)(=O)c4cn(CC(=O)O)c5ccccc5c4=O)CC3)C2)c1` [Compound 544, 2-(3-((R)-3-((S)-2-hydroxy-3-(3-(N-methylsulfamoyl)phenoxy)propylamino)-1-oxa-8-azaspiro[4.5]decan-8-ylsulfonyl)-4-oxoquinolin-1(4H)-yl)acetic acid], the IC50 was determined as 32.7 nM.

`CNS(=O)(=O)c1cccc(OC[C@@H](O)CNC2COC3(CCN(S(=O)(=O)c4cc(Br)ccc4OC)CC3)C2)c1` (stereo partly drawn) [Compound 220, 3-((2S)-3-(8-(5-bromo-2-methoxyphenylsulfonyl)-1-oxa-8-azaspiro[4.5]decan-3-ylamino)-2-hydroxypropoxy)-N-methylbenzenesulfonamide]: the IC50 came to 19.1 nM.

`CNS(=O)(=O)c1cccc(OC[C@@H](O)CNC2COC3(CCN(S(=O)(=O)c4ccc(N5CCNCC5)nc4)CC3)C2)c1` (stereo partly drawn) [Compound 430, 3-((2S)-2-hydroxy-3-(8-(6-(piperazin-1-yl)pyridin-3-ylsulfonyl)-1-oxa-8-azaspiro[4.5]decan-3-ylamino)propoxy)-N-methylbenzenesulfonamide]: the half-inhibitory concentration (IC50) worked out at 93.4 nM.
